Test system: SIMA135 tyrosine phosphorylation
Settings: PP2 50 μM, 30 minutes at 37° C, serum free DMEM
Experimental: Cell lysates, serum free conditioned media and immunoprecipitated proteins were separated by electrophoresis through 8% SDS-polyacrylamide gels then transferred to nitrocellulose membranes (Millipore). […] Following extensive washing membranes were incubated for 2 hr at room temperature with goat anti-mouse IgG (0.16 μg/ml, Pierce, Rockford, Il) and immunoreactive bands detected by enhanced chemiluminescence (Pierce).
For analysis of the basal level of tyrosine phosphorylation of SIMA135, subconfluent cultures of HEp3 and HeLa (as negative control) cells were incubated at 37° C. for 30 min with serum free DMEM containing 50 mM NaF and 1 mM Na3VO4 then washed with ice cold PBS. For inhibition of Src kinase family phosphorylation, HEp3 cells were cultured in serum free DMEM without NaF and Na3VO4 for 30 minutes at 37° C. with PP2 (50 μM). Cells were then lysed in ice cold buffer containing 50 mM Tris (pH 7.4), 150 mM NaCl, 1% Triton X-100, 1 mM phenylmethylsulfonyl fluoride, 1 mM benzamidine, 25 μg/ml aprotinin, 25 μg/ml leupeptin, 50 mM NaF and 1 mM Na3VO4. Insoluble material was removed by centrifugation at 14000 rpm for 10 min. […] Cells lysates were collected as described above.

Structure (SMILES): CC(C)(C)n1nc(-c2ccc(Cl)cc2)c2c(N)ncnc21 [PP2]
- reduction in the level of SIMA135 tyrosine phosphorylation compared to untreated HEp3 cells: ~75%
